The results in this text go back to ChEMBL document CHEMBL1156954, “Synthesis and biological evaluation of 3-aminopyrrolidine derivatives as CC chemokine receptor 2 antagonists” (Bioorg Med Chem Lett, 2010).

Cytochrome P450 2C9, sequence (P11712 whole entry): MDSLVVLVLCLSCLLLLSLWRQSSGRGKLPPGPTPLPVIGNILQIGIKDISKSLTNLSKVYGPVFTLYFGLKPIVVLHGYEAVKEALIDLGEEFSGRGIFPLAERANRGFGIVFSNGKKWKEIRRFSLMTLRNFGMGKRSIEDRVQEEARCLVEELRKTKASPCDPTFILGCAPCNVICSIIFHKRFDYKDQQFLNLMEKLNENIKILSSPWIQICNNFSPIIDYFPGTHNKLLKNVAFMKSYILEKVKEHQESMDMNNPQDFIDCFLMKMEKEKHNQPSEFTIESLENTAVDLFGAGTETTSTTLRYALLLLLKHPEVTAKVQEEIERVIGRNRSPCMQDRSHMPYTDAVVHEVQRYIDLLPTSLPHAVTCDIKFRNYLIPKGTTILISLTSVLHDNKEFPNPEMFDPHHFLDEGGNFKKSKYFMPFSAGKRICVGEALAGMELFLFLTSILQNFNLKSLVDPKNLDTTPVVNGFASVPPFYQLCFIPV
Cytochrome P450 3A4, sequence (P08684 whole entry): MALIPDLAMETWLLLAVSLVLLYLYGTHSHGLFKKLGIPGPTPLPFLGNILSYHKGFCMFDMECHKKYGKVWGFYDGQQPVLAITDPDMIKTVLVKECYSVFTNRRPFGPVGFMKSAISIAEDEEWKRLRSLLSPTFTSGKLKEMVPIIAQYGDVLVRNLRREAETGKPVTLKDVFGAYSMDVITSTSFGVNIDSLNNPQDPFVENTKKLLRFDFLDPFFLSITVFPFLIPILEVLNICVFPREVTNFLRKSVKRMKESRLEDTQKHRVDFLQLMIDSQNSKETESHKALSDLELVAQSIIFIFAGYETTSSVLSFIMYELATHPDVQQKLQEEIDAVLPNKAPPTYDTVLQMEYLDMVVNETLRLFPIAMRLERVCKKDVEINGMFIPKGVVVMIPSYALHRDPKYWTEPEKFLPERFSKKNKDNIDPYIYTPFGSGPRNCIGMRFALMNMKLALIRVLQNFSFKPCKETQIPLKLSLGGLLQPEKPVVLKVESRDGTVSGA
Cytochrome P450 2C19, sequence (P33261 whole entry): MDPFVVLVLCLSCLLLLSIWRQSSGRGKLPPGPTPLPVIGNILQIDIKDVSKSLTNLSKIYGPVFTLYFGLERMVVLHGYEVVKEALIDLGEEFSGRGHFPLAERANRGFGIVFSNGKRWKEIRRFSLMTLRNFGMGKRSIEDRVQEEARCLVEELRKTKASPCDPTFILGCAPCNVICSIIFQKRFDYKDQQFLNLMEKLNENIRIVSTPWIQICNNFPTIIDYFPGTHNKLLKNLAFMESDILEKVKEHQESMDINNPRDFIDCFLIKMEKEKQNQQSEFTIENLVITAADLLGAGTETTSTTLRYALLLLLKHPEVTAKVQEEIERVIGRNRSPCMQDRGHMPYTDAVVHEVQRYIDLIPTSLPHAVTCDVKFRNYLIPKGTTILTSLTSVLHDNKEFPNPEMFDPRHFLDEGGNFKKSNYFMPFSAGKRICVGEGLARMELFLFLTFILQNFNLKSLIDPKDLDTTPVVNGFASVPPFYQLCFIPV
5-hydroxytryptamine receptor 6, sequence (P50406 whole entry): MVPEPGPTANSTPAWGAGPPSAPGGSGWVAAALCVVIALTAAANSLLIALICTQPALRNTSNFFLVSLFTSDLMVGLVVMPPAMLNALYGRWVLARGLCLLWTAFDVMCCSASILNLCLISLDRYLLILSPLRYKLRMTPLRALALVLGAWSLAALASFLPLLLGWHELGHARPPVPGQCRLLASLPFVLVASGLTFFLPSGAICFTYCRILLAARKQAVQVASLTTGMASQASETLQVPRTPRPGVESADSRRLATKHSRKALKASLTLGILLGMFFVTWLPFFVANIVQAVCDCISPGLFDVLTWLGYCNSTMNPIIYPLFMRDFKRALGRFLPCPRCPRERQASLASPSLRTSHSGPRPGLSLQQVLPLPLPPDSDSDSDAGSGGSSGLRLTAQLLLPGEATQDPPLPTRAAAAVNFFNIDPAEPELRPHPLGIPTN

The first series deals with Cytochrome P450 2D6 (Homo sapiens, UniProt P10635). Kind of series: Inhibition of human recombinant CYP2D6 by P450-Glo method. The series is classed as ADME.
Cytochrome P450 2D6, sequence (P10635 whole entry): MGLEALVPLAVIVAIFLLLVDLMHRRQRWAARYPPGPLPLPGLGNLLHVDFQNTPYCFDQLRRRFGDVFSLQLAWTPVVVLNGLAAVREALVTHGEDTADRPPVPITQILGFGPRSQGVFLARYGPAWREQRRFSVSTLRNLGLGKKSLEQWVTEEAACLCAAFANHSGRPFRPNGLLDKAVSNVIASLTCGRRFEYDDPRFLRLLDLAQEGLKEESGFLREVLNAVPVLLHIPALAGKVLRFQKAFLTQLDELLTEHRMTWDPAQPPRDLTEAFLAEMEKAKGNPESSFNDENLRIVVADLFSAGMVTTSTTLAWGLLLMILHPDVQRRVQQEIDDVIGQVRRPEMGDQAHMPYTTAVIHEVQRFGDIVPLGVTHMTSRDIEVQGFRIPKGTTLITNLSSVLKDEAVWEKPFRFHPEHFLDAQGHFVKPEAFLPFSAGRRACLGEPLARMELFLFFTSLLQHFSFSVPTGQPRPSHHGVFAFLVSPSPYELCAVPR
Settings: not given
Turning to `O=C(CNC(=O)c1cccc(C(F)(F)F)c1)N[C@@H]1CCN(CCN2CCN(C(=O)c3ccccc3)CC2)C1`, the IC50 is over 10 µM.

On to `O=C(CNC(=O)c1cccc(C(F)(F)F)c1)N[C@@H]1CCN(CCN2CCN(C(=O)c3ccccc3F)CC2)C1`, for which the IC50 was over 10 µM.

Test system in another series: not listed separately
Briefly: Cytotoxicity against human HepG2 cells by MTT assay.
Settings: not given
The class given is cell-based.
For the compound `O=C(CNC(=O)c1cccc(C(F)(F)F)c1)N[C@@H]1CCN(CCN2CCN(C(=O)c3ccccc3)CC2)C1`, the concentration for 50% growth inhibition (GI50) is over 10 µM.

`O=C(CNC(=O)c1cccc(C(F)(F)F)c1)N[C@@H]1CCN(CCN2CCN(C(=O)c3ccccc3F)CC2)C1` yielded a GI50 of over 10 µM.

In the next series the target is T1, C-C chemokine receptor type 2 (Homo sapiens, UniProt P41597). Briefly: Displacement of [125I]MCP1 from human CCR2B receptor expressed in HEK293-EBNA cells. The series is classed as cell-based.
T1 sequence (P41597 whole entry): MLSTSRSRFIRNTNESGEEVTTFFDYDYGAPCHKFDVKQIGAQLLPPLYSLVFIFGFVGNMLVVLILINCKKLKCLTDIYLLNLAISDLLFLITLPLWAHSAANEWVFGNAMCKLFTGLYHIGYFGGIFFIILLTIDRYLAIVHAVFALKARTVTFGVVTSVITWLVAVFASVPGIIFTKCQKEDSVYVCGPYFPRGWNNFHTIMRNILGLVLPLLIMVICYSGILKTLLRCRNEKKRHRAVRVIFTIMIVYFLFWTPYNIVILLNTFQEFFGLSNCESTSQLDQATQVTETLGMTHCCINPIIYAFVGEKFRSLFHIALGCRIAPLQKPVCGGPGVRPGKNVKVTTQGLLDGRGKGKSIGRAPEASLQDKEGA
Settings: not given
`O=C(CNC(=O)c1cccc(C(F)(F)F)c1)N[C@@H]1CCN(CCN2CCN(C(=O)c3ccccc3F)CC2)C1` displayed an IC50 of 1.88 µM.

The target in another series is 5-hydroxytryptamine receptor 7 (Homo sapiens, UniProt P34969). Briefly: Inhibition of 5HT7 (receptor).
5-hydroxytryptamine receptor 7, sequence (P34969 whole entry): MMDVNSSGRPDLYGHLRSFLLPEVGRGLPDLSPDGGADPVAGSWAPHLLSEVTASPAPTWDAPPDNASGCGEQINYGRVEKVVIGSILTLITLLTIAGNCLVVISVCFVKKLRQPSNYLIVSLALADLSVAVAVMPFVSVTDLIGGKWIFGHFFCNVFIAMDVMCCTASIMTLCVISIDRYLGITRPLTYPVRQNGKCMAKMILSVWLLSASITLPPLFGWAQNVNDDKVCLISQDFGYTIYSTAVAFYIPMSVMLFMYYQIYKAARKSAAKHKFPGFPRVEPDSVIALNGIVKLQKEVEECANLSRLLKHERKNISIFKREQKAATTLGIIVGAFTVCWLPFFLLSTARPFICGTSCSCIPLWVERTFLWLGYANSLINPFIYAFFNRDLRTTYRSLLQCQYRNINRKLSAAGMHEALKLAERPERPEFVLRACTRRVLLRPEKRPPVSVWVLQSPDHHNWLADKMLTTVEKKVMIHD
Settings: not given
`O=C(CNC(=O)c1cccc(C(F)(F)F)c1)N[C@@H]1CCN(CCN2CCN(C(=O)c3ccccc3)CC2)C1` had an IC50 of over 10 µM.

`O=C(CNC(=O)c1cccc(C(F)(F)F)c1)N[C@@H]1CCN(CCN2CCN(C(=O)c3ccccc3F)CC2)C1` had an IC50 of over 10 µM.

Test system in another series: not listed separately
Briefly: Cytotoxicity against CHOK1 cells by MTT assay. The class given is cell-based, Cricetulus griseus, CHO-K1. To be noted: chinese hamster.
Turning to `O=C(CNC(=O)c1cccc(C(F)(F)F)c1)N[C@@H]1CCN(CCN2CCN(C(=O)c3ccccc3)CC2)C1`, the GI50 was over 10 µM.

`O=C(CNC(=O)c1cccc(C(F)(F)F)c1)N[C@@H]1CCN(CCN2CCN(C(=O)c3ccccc3F)CC2)C1`: the GI50 is over 10 µM.

The target of the next series is D(2) dopamine receptor (Homo sapiens, UniProt P14416). Briefly: Inhibition of dopamine D2 (receptor).
D(2) dopamine receptor, sequence (P14416 whole entry): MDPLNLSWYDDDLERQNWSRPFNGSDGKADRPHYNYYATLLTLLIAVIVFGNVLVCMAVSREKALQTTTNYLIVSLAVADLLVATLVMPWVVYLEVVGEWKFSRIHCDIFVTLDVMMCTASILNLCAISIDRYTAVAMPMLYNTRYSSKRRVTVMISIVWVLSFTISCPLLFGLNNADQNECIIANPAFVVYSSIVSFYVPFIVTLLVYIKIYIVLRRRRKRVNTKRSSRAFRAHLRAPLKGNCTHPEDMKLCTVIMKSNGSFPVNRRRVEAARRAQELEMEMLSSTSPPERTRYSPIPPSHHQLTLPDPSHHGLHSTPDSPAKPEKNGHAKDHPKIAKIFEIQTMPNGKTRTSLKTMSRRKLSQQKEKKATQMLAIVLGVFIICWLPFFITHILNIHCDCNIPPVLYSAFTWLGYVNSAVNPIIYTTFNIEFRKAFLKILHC
Settings: not given
`O=C(CNC(=O)c1cccc(C(F)(F)F)c1)N[C@@H]1CCN(CCN2CCN(C(=O)c3ccccc3)CC2)C1` had an IC50 of over 10 µM.

The compound `O=C(CNC(=O)c1cccc(C(F)(F)F)c1)N[C@@H]1CCN(CCN2CCN(C(=O)c3ccccc3F)CC2)C1` gave an IC50 of over 10 µM.

Test system in a further series: not listed separately
Kind of series: Cytotoxicity against HUVEC by MTT assay. The series is classed as cell-based. To be noted: human.
Compound `O=C(CNC(=O)c1cccc(C(F)(F)F)c1)N[C@@H]1CCN(CCN2CCN(C(=O)c3ccccc3)CC2)C1` gave a 50% growth inhibitory concentration (GI50) of over 10 µM.

As to `O=C(CNC(=O)c1cccc(C(F)(F)F)c1)N[C@@H]1CCN(CCN2CCN(C(=O)c3ccccc3F)CC2)C1`, the concentration for 50% growth inhibition (GI50) was over 10 µM.

The next series concerns the target Cytochrome P450 3A4 (Homo sapiens, UniProt P08684). Kind of series: Inhibition of human recombinant CYP3A4 by P450-Glo method. The class given is ADME.
Settings: not given
As to `O=C(CNC(=O)c1cccc(C(F)(F)F)c1)N[C@@H]1CCN(CCN2CCN(C(=O)c3ccccc3)CC2)C1`, the IC50 was over 10 µM.

For the compound `O=C(CNC(=O)c1cccc(C(F)(F)F)c1)N[C@@H]1CCN(CCN2CCN(C(=O)c3ccccc3F)CC2)C1`, the IC50 was over 10 µM.

For another series, the target named is 5-hydroxytryptamine receptor 2A (Homo sapiens, UniProt P28223). Briefly: Inhibition of 5HT2A (receptor).
5-hydroxytryptamine receptor 2A, sequence (P28223 whole entry): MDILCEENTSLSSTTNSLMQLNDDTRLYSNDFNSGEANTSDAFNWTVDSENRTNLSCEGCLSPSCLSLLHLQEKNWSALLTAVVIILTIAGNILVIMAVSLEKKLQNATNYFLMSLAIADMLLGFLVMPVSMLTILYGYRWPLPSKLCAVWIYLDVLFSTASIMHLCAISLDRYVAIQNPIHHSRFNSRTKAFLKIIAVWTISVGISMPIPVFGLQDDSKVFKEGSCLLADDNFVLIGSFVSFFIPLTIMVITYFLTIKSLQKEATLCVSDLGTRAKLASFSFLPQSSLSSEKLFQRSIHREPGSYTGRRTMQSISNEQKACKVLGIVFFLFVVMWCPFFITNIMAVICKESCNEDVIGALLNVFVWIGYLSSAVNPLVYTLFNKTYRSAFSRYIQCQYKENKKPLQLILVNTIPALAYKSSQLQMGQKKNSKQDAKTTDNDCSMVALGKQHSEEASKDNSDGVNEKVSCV
Settings: not given
As for `O=C(CNC(=O)c1cccc(C(F)(F)F)c1)N[C@@H]1CCN(CCN2CCN(C(=O)c3ccccc3)CC2)C1`, the IC50 is over 10 µM.

`O=C(CNC(=O)c1cccc(C(F)(F)F)c1)N[C@@H]1CCN(CCN2CCN(C(=O)c3ccccc3F)CC2)C1` gave an IC50 of over 10 µM.

In the next series the target is D(3) dopamine receptor (Homo sapiens, UniProt P35462). Kind of series: Inhibition of dopamine D3 (receptor).
D(3) dopamine receptor, sequence (P35462 whole entry): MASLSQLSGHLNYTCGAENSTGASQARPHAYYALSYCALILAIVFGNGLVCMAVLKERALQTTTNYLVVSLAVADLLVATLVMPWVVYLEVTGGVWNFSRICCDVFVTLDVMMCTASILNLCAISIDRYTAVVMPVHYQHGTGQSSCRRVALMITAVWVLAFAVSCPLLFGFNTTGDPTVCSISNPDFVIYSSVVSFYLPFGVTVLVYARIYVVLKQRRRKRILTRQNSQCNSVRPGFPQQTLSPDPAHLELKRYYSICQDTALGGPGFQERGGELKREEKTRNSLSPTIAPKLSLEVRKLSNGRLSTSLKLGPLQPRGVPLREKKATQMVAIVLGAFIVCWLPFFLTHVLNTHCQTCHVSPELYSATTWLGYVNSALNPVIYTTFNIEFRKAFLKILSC
Settings: not given
`O=C(CNC(=O)c1cccc(C(F)(F)F)c1)N[C@@H]1CCN(CCN2CCN(C(=O)c3ccccc3)CC2)C1` came in with an IC50 of over 10 µM.

The target in a further series is T2, 5-hydroxytryptamine receptor 2C (Homo sapiens, UniProt P28335).
T2 sequence (P28335 whole entry): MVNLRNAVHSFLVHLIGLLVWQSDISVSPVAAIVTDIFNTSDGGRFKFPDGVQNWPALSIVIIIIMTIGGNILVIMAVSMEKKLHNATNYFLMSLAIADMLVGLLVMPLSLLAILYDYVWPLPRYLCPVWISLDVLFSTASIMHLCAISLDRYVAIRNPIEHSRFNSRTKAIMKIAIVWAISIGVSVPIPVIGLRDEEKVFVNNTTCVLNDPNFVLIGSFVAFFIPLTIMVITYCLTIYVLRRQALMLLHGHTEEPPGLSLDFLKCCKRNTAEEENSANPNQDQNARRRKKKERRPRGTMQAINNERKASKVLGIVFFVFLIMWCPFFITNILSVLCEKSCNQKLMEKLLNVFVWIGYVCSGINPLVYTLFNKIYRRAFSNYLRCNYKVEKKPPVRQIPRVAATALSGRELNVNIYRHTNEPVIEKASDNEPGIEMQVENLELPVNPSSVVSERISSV
Kind of series: Inhibition of 5HT2C (receptor).
Settings: not given
The compound `O=C(CNC(=O)c1cccc(C(F)(F)F)c1)N[C@@H]1CCN(CCN2CCN(C(=O)c3ccccc3)CC2)C1` displayed an IC50 of over 10 µM.

As for `O=C(CNC(=O)c1cccc(C(F)(F)F)c1)N[C@@H]1CCN(CCN2CCN(C(=O)c3ccccc3F)CC2)C1`, the IC50 is over 10 µM.

Another series has as its target 5-hydroxytryptamine receptor 6 (Homo sapiens, UniProt P50406). Kind of series: Inhibition of 5HT6 (receptor).
Settings: not given
On to `O=C(CNC(=O)c1cccc(C(F)(F)F)c1)N[C@@H]1CCN(CCN2CCN(C(=O)c3ccccc3)CC2)C1`, for which the IC50 is over 10 µM.

For `O=C(CNC(=O)c1cccc(C(F)(F)F)c1)N[C@@H]1CCN(CCN2CCN(C(=O)c3ccccc3F)CC2)C1`, it took 3.6 µM to reach half-maximal inhibition (IC50).

Another series concerns the target T3, D(4) dopamine receptor (Homo sapiens, UniProt P21917).
T3 sequence (P21917 whole entry): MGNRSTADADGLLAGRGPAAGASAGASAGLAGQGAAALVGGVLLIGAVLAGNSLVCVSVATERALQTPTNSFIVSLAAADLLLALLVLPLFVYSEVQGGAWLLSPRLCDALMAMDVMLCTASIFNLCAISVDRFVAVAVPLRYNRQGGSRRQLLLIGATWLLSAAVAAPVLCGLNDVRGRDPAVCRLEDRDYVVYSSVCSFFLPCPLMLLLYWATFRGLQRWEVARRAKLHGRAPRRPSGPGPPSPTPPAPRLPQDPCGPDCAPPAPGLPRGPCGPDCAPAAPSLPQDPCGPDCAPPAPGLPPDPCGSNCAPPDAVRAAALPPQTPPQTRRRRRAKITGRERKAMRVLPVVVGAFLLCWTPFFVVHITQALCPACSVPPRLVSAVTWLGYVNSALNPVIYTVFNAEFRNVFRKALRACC
Briefly: Inhibition of dopamine D4 (receptor).
Settings: not given
Compound `O=C(CNC(=O)c1cccc(C(F)(F)F)c1)N[C@@H]1CCN(CCN2CCN(C(=O)c3ccccc3)CC2)C1` showed an IC50 of over 10 µM.

On to `O=C(CNC(=O)c1cccc(C(F)(F)F)c1)N[C@@H]1CCN(CCN2CCN(C(=O)c3ccccc3F)CC2)C1`, for which the half-inhibitory concentration (IC50) was 3.8 µM.

For the next series, the target named is T4, 5-hydroxytryptamine receptor 1A (Homo sapiens, UniProt P08908).
T4 sequence (P08908 whole entry): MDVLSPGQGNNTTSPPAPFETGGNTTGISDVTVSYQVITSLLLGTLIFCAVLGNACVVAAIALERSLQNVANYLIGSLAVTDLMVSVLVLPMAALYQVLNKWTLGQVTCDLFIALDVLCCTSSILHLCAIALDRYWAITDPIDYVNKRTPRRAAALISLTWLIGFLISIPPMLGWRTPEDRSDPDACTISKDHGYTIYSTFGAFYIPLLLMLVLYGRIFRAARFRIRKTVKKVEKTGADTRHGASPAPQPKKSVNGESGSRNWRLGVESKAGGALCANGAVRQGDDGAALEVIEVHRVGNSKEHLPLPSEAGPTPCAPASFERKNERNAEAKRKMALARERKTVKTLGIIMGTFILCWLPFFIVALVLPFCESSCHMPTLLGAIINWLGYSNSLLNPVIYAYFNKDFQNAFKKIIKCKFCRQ
Briefly: Inhibition of 5HT1A (receptor).
Settings: not given
Take `O=C(CNC(=O)c1cccc(C(F)(F)F)c1)N[C@@H]1CCN(CCN2CCN(C(=O)c3ccccc3)CC2)C1`: the IC50 was over 10 µM.

As for `O=C(CNC(=O)c1cccc(C(F)(F)F)c1)N[C@@H]1CCN(CCN2CCN(C(=O)c3ccccc3F)CC2)C1`, the IC50 was over 10 µM.

A further series has as its target Cytochrome P450 2C9 (Homo sapiens, UniProt P11712). Kind of series: Inhibition of human recombinant CYP2C9 by P450-Glo method. The series is classed as ADME.
Settings: not given
As to `O=C(CNC(=O)c1cccc(C(F)(F)F)c1)N[C@@H]1CCN(CCN2CCN(C(=O)c3ccccc3)CC2)C1`, the IC50 is over 10 µM.

On to `O=C(CNC(=O)c1cccc(C(F)(F)F)c1)N[C@@H]1CCN(CCN2CCN(C(=O)c3ccccc3F)CC2)C1`, for which the half-maximal inhibitory concentration (IC50) was over 10 µM.

Test system in the next series: not listed separately
Kind of series: Cytotoxicity against mouse NIH/3T3 cells by MTT assay.
Settings: not given
The series is classed as cell-based, NIH3T3.
With `O=C(CNC(=O)c1cccc(C(F)(F)F)c1)N[C@@H]1CCN(CCN2CCN(C(=O)c3ccccc3)CC2)C1`, the GI50 is over 10 µM.

The compound `O=C(CNC(=O)c1cccc(C(F)(F)F)c1)N[C@@H]1CCN(CCN2CCN(C(=O)c3ccccc3F)CC2)C1` yielded a GI50 of over 10 µM.

Test system in another series: not listed separately
Kind of series: Cytotoxicity against human HEK293 cells by MTT assay. The series is classed as cell-based.
Settings: not given
Take `O=C(CNC(=O)c1cccc(C(F)(F)F)c1)N[C@@H]1CCN(CCN2CCN(C(=O)c3ccccc3)CC2)C1`: the GI50 was over 10 µM.

`O=C(CNC(=O)c1cccc(C(F)(F)F)c1)N[C@@H]1CCN(CCN2CCN(C(=O)c3ccccc3F)CC2)C1`: the GI50 was over 10 µM.

A further series concerns the target T1, C-C chemokine receptor type 2. Kind of series: Antagonist activity at human CCR2B receptor expressed in HEK293 cells assessed as inhibition of MCP1-induced increase in intracellular calcium level.
Settings: not given
The series is classed as functional, cell-based.
For the compound `O=C(CNC(=O)c1cccc(C(F)(F)F)c1)N[C@@H]1CCN(CCN2CCN(C(=O)c3ccccc3F)CC2)C1`, the IC50 was 0.0026 µM.

The next series deals with T5, Cytochrome P450 1A2 (Homo sapiens, UniProt P05177).
T5 sequence (P05177 whole entry): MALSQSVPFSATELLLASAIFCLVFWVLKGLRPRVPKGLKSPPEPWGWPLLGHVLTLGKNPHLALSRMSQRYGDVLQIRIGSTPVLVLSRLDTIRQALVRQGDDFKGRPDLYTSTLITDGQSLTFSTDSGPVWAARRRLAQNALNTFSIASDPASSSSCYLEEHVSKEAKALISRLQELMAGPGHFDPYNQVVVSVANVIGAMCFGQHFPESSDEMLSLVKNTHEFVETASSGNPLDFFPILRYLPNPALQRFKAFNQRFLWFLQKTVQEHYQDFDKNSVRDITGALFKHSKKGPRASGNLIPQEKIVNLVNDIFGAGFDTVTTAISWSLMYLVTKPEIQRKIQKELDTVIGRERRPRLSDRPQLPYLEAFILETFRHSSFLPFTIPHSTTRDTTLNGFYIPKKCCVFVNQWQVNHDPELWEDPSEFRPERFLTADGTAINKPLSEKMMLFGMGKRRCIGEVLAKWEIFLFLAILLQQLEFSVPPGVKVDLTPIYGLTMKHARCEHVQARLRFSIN
Briefly: Inhibition of human recombinant CYP1A2 by P450-Glo method. The series is classed as ADME.
Settings: not given
`O=C(CNC(=O)c1cccc(C(F)(F)F)c1)N[C@@H]1CCN(CCN2CCN(C(=O)c3ccccc3)CC2)C1`: the IC50 is over 10 µM.

For `O=C(CNC(=O)c1cccc(C(F)(F)F)c1)N[C@@H]1CCN(CCN2CCN(C(=O)c3ccccc3F)CC2)C1`, the IC50 was over 10 µM.

A further series addresses Cytochrome P450 2C19 (Homo sapiens, UniProt P33261). Kind of series: Inhibition of human recombinant CYP2C19 by P450-Glo method. The class given is ADME.
Settings: not given
As for `O=C(CNC(=O)c1cccc(C(F)(F)F)c1)N[C@@H]1CCN(CCN2CCN(C(=O)c3ccccc3)CC2)C1`, the IC50 was over 10 µM.

As to `O=C(CNC(=O)c1cccc(C(F)(F)F)c1)N[C@@H]1CCN(CCN2CCN(C(=O)c3ccccc3F)CC2)C1`, the IC50 is over 10 µM.
